Measurements from publication PMC3158827 (ACS chemical biology, 2011).
pKi: −log10 of the molar value. Non-standard residues stand in square brackets, D forms with d. No end group written: not given here.

Tests used:
thrombin [1] = details: cited from earlier work
plasma kallikrein = details: cited from earlier work
trypsin = details: cited from earlier work
thrombin [2] = details: cited from earlier work; remark: listed apart in the source
chymotrypsin = assay: chymotrypsin; details: 37°C, up to 120 minutes

[dF]PRP
thrombin inhibition (thrombin [1]; concentrations up to 10 µM): does not significantly inhibit thrombin

Ecallantide
pKi (plasma kallikrein): 10.36

ω-conotoxin MVIIa
degradation by trypsin (trypsin): degraded

bivalirudin
association rate constant (thrombin [2]): 4e+08 M⁻¹ s⁻¹ | dissociation rate (thrombin [2]): 0.8 s⁻¹ | pKi (thrombin [1]): 8.70

GGSCIDGGRLMCGGS
cleaved bond (chymotrypsin): methionine-C
